Counter-ions that a name gives are not always drawn. Like-named read-outs stand apart in the source and are kept apart here.
Columns and labels:
DNMT1 = DNMT1 (Homo sapiens, UniProt P26358); test: DNMT1 biochemical activity, breaklight assay and/or SPA assay; conditions: for IC50 / DNMT1 BioChemical (pIC50 category): binned activity in either the breaklight or the SPA assay
[1] = system: erythroid progenitor cells (EPCs); test: Fetal hemoglobin (HbF) ELISA in day 7 erythroid progenitor cells; format: cell-based, human; conditions: Homo sapiens, Erythroid progenitor cell;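 for EPC ELISA (pEC50 category): for fetal hemoglobin induction normalized to vehicle-treated cells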
Procedure, shortened: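 HbF induction was read by anti-HbF sandwich ELISA (HRP/TMB, OD450) on lysates and normalized to vehicle-treated cells. Cells were day 7 erythroid progenitors derived from human bone marrow CD34+ cells, seeded at 1,000/well with 3 U/mL rhEPO. Compound was given for 5 days at 37 °C at final concentrations […].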

[2] = read-out: DNMT1 BioChemical (pIC50 category) (converted)
[3] = HbF ELISA, day 7 EPCs, 5 days, read-out: EPC ELISA (pEC50 category) (converted)

Sequence of DNMT1 (P26358 whole entry, looked up): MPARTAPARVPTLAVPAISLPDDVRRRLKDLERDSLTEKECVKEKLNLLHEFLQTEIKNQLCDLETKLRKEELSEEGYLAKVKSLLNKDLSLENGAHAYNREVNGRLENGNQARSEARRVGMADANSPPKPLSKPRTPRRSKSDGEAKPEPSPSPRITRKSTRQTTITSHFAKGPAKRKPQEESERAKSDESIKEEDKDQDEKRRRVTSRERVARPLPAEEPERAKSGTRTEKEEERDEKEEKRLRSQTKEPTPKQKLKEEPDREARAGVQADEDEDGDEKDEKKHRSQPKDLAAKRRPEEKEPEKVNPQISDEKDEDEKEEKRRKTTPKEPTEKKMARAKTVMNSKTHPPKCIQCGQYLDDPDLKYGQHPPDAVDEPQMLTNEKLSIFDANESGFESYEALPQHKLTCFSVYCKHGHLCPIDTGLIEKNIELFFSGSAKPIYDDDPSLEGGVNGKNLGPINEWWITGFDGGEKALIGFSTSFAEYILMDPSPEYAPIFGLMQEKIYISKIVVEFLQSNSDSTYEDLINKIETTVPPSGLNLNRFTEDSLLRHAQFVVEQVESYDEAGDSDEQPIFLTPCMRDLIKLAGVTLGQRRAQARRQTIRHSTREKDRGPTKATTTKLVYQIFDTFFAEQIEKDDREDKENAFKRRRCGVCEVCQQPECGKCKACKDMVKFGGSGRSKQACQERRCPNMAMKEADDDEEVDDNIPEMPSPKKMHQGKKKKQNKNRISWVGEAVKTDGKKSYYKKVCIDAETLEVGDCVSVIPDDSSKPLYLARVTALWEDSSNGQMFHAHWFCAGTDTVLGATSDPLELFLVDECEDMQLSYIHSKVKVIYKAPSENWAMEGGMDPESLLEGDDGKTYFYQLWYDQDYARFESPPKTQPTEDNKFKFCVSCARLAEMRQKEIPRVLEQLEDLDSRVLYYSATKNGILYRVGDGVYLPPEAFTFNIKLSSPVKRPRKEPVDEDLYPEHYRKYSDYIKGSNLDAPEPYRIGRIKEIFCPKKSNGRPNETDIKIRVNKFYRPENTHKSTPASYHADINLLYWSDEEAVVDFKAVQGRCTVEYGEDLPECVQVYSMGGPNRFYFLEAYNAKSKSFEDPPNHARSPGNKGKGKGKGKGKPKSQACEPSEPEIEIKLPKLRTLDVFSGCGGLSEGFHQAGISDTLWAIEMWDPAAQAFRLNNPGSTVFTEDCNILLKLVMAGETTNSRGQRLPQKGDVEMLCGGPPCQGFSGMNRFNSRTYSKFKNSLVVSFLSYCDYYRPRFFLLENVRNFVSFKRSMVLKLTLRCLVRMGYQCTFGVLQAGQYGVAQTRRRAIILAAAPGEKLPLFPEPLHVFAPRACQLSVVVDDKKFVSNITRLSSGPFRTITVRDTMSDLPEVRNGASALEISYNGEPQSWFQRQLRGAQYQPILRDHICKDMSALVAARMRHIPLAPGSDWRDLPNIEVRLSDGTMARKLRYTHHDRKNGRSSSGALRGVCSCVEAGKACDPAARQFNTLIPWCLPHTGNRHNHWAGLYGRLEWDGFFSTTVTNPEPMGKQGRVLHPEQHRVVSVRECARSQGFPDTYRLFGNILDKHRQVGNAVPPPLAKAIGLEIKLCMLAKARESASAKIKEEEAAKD

SMILES	IC50 (DNMT1; [2])	EC50 [1, 3]	other results
CCc1c(C#N)c(SC(C(N)=O)c2ccccc2)nc(N2CCNCC2)c1C#N (stereo not shown) [Example 55, 2-((3,5-Dicyano-4-ethyl-6-(piperazin-1-yl)pyridin-2-yl)thio)-2-phenylacetamide]	0.316 to 1 µM	< 0.316 µM	–
CCc1c(C#N)c(SC(C(N)=O)c2ccccc2)nc(N2CCC23CCNCC3)c1C#N (stereo not shown) [Example 38, 2-((3,5-Dicyano-4-ethyl-6-(1,7-diazaspiro[3.5]nonan-1-yl)pyridin-2-yl)thio)-2-phenylacetamide trifluoroacetate]	–	–	IC50 (DNMT1; DNMT1 BioChemical (pIC50 category)): 0.316 to 1 µM; EC50 ([1]; read-out: EPC ELISA (pEC50 category) (converted)): 0.316 to 1 µM
N#Cc1c(SC(C(N)=O)c2ccncc2)nc(N2CCOCC2)c(C#N)c1C1CC1 (stereo not shown) [Example 9, 2-((3,5-dicyano-4-cyclopropyl-6-morpholinopyridin-2-yl)thio)-2-(pyridin-4-yl)acetamide]	0.316 to 1 µM	> 31.6 µM	–
CN1CCN(CC2CCN(c3nc(SC(C(N)=O)c4ccccc4)c(C#N)c(C4CC4)c3C#N)CC2)CC1 (stereo not shown) [Example 125, 2-((3,5-Dicyano-4-cyclopropyl-6-(4-((4-methylpiperazin-1-yl)methyl)piperidin-1-yl)pyridin-2-yl)thio-2-phenylacetamide trifluoroacetate]	–	< 0.316 µM	DNMT1 BioChemical (pIC50 category) (DNMT1): D (Category D: ≥6.5); average pIC50 against DNMT1 (DNMT1; breaklight assay and/or SPA assay, repeated experimental runs): > 6.5
N#Cc1c(SC(C(N)=O)c2ccccc2)nc(N2CCOC(CO)C2)c(C#N)c1C1CC1 (stereo not shown) [Example 63, 2-((3,5-Dicyano-4-cyclopropyl-6-(2-(hydroxymethyl)morpholino)pyridin-2-yl)thio)-2-phenylacetamide]	0.316 to 1 µM	0.316 to 1 µM	–
CCc1c(C#N)c(SC(C(N)=O)c2ccccc2)nc(N2CCC(O)CC2)c1C#N (stereo not shown) [Example 48, 2-((3,5-Dicyano-4-ethyl-6-(4-hydroxypiperidin-1-yl)pyridin-2-yl)thio)-2-phenylacetamide]	0.316 to 1 µM	1 to 31.6 µM	–
CCc1c(C#N)c(SC(C(N)=O)c2ccccc2)nc(N(C)C)c1C#N (stereo not shown) [Compound A, 2-{[3,5-dicyano-6-(dimethylamino)-4-ethylpyridin-2-yl]sulfanyl}-2-phenylacetamide]	–	–	EC50 ([1]; day 7 EPCs, 5 days at 37° C, read-out: increase in HbF, average pEC50 (converted)): 0.316 µM
CC(Sc1nc(N2CCCNCC2)c(C#N)c(C2CC2)c1C#N)C(N)=O (stereo not shown) [Example 46, 2-((3,5-dicyano-4-cyclopropyl-6-(1,4-diazepan-1-yl)pyridin-2-yl)thio)propanamide]	0.316 to 1 µM	> 31.6 µM	–
CCc1c(C#N)c(N[C@@H](C(N)=O)c2ccccc2)nc(N2CCCNCC2)c1C#N [Example 41, (R)-2-((3,5-dicyano-6-(1,4-diazepan-1-yl)-4-ethylpyridin-2-yl)amino)-2-phenylacetamide]	0.316 to 1 µM	1 to 31.6 µM	–
CCc1c(C#N)c(SC(C(N)=O)c2ccccc2)nc(N2CCCN(C)CC2)c1C#N (stereo not shown) [Example 56, 2-((3,5-Dicyano-4-ethyl-6-(4-methyl-1,4-diazepan-1-yl)pyridin-2-yl)thio)-2-phenylacetamide]	–	< 0.316 µM	DNMT1 BioChemical (pIC50 category) (DNMT1): D (Category D: ≥6.5)
CCc1c(C#N)c(SC(C(N)=O)c2ccccc2)nc(N2CCOCC2)c1C#N (stereo not shown) [Example 57, 2-((3,5-Dicyano-4-ethyl-6-morpholinopyridin-2-yl)thio)-2-phenylacetamide]	0.316 to 1 µM	0.316 to 1 µM	–
CN1CCN(C2CCN(c3nc(SC(C(N)=O)c4ccccc4)c(C#N)c(C4CC4)c3C#N)CC2)CC1 (stereo not shown) [Example 40, 2-((3,5-Dicyano-4-cyclopropyl-6-(4-(4-methylpiperazin-1-yl)piperidin-1-yl)pyridin-2-yl)thio)-2-phenylacetamide]	–	< 0.316 µM	DNMT1 BioChemical (pIC50 category) (DNMT1): D (Category D: ≥6.5)
CCc1c(C#N)c(SC(C(N)=O)c2ccccc2)nc(N2CCNC(=O)CC2)c1C#N (stereo not shown) [Example 8, 2-{[3,5-dicyano-4-ethyl-6-(5-oxo-1,4-diazepan-1-yl)pyridin-2-yl]sulfanyl}-2-phenylacetamide]	0.316 to 1 µM	1 to 31.6 µM	–
CCc1c(C#N)c(SC(C(N)=O)c2ccccc2)nc(N2CCN(CC)CC2)c1C#N (stereo not shown) [Example 35, 2-((3,5-dicyano-4-ethyl-6-(4-ethylpiperazin-1-yl)pyridin-2-yl)thio)-2-phenylacetamide]	0.316 to 1 µM	1 to 31.6 µM	–
